Structures are written as SMILES.

Format in all cases: in vivo
One assay has as its system H. armigera 3rd instar. The assay is described as follows: Example 5B ratio study, treated leaf bioassay, mortality and Colby synergy (protocol B). The protocol: (§1) Ratios of bifenthrin to chlorantraniliprole were evaluated on various crops and target pests as indicated in the protocol disclosed Table 5A below where “Lab.” Refers to laboratory, “No. of Treat.” refers to number of treatments, and Total refers to the total number of insects tested. In each evaluation, foliar application was done, the insecticide action was contact/ingestion and 32 insects were evaluated in each treatment.
(§2) The treatment schedule shown in Table 5B was used where “dose” refers to application rate, “ratio” refers to the ratio of bifenthrin to chlorantraniliprole on an a.i. basis.
(§3) Treatments were applied inside a sprayer chamber simulating a volume of 200 l/ha over soybean plants. After a drying period, treated leaves were removed from the plants and placed inside 16 well trays containing agar solution (2%) covered with filter paper. Two 16 well trays were prepared for each treatment (32 larvae/treatment). One 3rd instar larva from laboratory strains was placed in each well over the treated leaf. Trays were kept under controlled conditions of 25° C., photoperiod of 14:10 hours, and 60% RH. Morality was evaluated after 96 hours. Mortality is defined as dead and moribund larvae.
(§4) Synergy or antagonism was determined using the Colby Equation where: E=X+(100−X)(Y)/100)=X+Y−X*Y/100. X is the observed result for compound A at p grams a.e./ha. Y is the observed result for compound B at q grams a.e./ha. E is the expected result for a mixture of A and B at (p+q) g a.i./ha if there is no synergy or antagonism. If the observed value for the combination of A and B is greater than E (Obs>E) then synergy is indicated. If the observed value for the combination of A and B is less than E (Obs<E) then antagonism is indicated.
Morality on H. armigera was evaluated according to protocol B (refer to Table 5B) using treatment numbers 5.1 to 5.13 (refer to Table 5B).

Assay [1] concerns S. frugiperda field strain. Nature of the assay: Example 5C ratio study, mortality and Colby synergy, field strain (protocol H). The protocol: as §1, §2, §3, §4
(§5) Morality on S. frugiperda was evaluated according to protocols G and H (refer to Table 5B), but where two S. frugiperda strains were tested: a laboratory strain (susceptible) and a field strain in F3 generation sampled in the 2018/2019 season in Sinop-MT region using treatment numbers 5.1 to 5.10 (refer to Table 5B). The results are reported in Tables 5E (Laboratory Strain) and 5F (Filed Strain).

The subject of assay [2] is S. frugiperda laboratory strain (susceptible). The assay is described as follows: Example 5C ratio study, mortality and Colby synergy, laboratory strain (protocol G). The following applies: Spodoptera frugiperda, 96 hours. The protocol: as §1, §2, §3, §4, §5
In assay [3] the test system is D. melachantus 3rd instar nymphs. The assay is described as follows: Example 5E ratio study, mortality and Colby synergy, nymphs (protocol E). The following applies: statement for D. melacanthus (nymphs and adults, protocols E and F). The protocol: as §1, §2, §4
(§6) Morality on E. heros was evaluated according to protocols C and D (refer to Table 5B). […] Mortality was evaluated after 72 hours. […]
Morality on D. melachantus was evaluated according to protocols E and F (refer to Table 5B). […]

Assay [4] deals with E. heros 3rd instar nymphs. Nature of the assay: Example 5D ratio study on soybean plants, mortality and Colby synergy, nymphs (protocol C). Conditions: statement for E. heros (nymphs and adults, protocols C and D). The protocol:
as §1, §2, §4, §6

For another assay, the system named is C. includens 3rd instar. Nature of the assay: Example 5A ratio study, treated leaf bioassay, mortality and Colby synergy (protocol A). Conditions: at 7.5 g a.i./ha. The protocol:
as §1, §2
Treatments were applied inside a sprayer chamber simulating a volume of 200 l/ha over soybean plants. After a drying period, treated leaves were removed from the plants and placed inside 16 well trays containing agar solution (2%) covered with filter paper. […] Morality was evaluated after 96 hours. […]
Synergy or antagonism was determined using the Colby Equation where: E=X+(100−X)(Y)/100)=X+Y−X*Y/100. […]
Morality on C. includens was evaluated according to protocol A (refer to Table 5B) using treatment numbers 5.1, 5.3, 5.5 to 5.8 and 5.10 to 5.13 (refer to Table 5B). The results are reported in Table 5C below where mortality is the mean mortality, the E value was calculated by the Colby equation, and the synergy value is determined by dividing the mean mortality (%) by the expected value (E).

On to `Cc1c(COC(=O)[C@@H]2[C@H](/C=C(\Cl)C(F)(F)F)C2(C)C)cccc1-c1ccccc1` (racemic) [Bifenthrin, 2-methylbiphenyl-3-ylmethyl (Z)-(1RS)-cis-3-(2-chloro-3,3,3-trifluoroprop-1-enyl)-2,2-dimethyl cyclopropanecarboxylate], for which the mortality at 10 g/ha in the assay with H. armigera 3rd instar (Helicoverpa armigera, Bifenthrin 10 g a.i./ha, 96 hours) stood at 0%; in assay [1] (Spodoptera frugiperda, Bifenthrin 10 g a.i./ha, 96 hours), 3.1%; in assay [2] (Bifenthrin 10 g a.i./ha) it was 34.4%. For the same molecule, the mortality at 15 g/ha with H. armigera 3rd instar (Helicoverpa armigera, Bifenthrin 15 g a.i./ha, 96 hours) is 0%; in assay [1] (Spodoptera frugiperda, Bifenthrin 15 g a.i./ha, 96 hours), 3.1%; in assay [2] (Bifenthrin 15 g a.i./ha), 53.1%. The mortality at 30 g/ha in the assay with H. armigera 3rd instar (Helicoverpa armigera, Bifenthrin 30 g a.i./ha, 96 hours) came to 0%; in assay [1] (Spodoptera frugiperda, Bifenthrin 30 g a.i./ha, 96 hours), 15.6%; in assay [2] (Bifenthrin 30 g a.i./ha), 78.1%. Moreover, the mortality at 45 g/ha is 0% in the assay with H. armigera 3rd instar (Helicoverpa armigera, Bifenthrin 45 g a.i./ha, 96 hours); 43.8% in assay [1] (Spodoptera frugiperda, Bifenthrin 45 g a.i./ha, 96 hours); 96.9% in assay [2] (Bifenthrin 45 g a.i./ha). Further, the mortality at 60 g/ha with H. armigera 3rd instar (Helicoverpa armigera, Bifenthrin 60 g a.i./ha, 96 hours) was 9.4%; in assay [1] (Spodoptera frugiperda, Bifenthrin 60 g a.i./ha, 96 hours), 43.8%; in assay [2] (Bifenthrin 60 g a.i./ha), 93.8%. The “control of H. armigera” value in the assay on H. armigera 3rd instar (even at a higher dose of 60 g a.i./ha, H. armigera resistance to pyrethroids) was “lower control”. For the same molecule, in assay [1] (lower doses of bifenthrin, especially on the field strain), the “control of S. frugiperda” value is on record as “lower control”.

With `CNC(=O)c1cc(Cl)cc(C)c1NC(=O)c1cc(Br)nn1-c1ncccc1Cl` [Chlorantraniliprole, 5-bromo-N-[4-chloro-2-methyl-6-(methylcarbamoyl)phenyl]-2-(3-chloropyridin-2-yl)pyrazole-3-carboxamide], the “control of D. melacanthus” value in assay [3] was “did not control”. For the same molecule, the mortality at 5 g/ha worked out at 84.4% with H. armigera 3rd instar (Helicoverpa armigera, Chlorantraniliprole 5 g a.i./ha, 96 hours); 40.6% in assay [1] (Spodoptera frugiperda, Chlorantraniliprole 5 g a.i./ha, 96 hours); 96.9% in assay [2] (Chlorantraniliprole 5 g a.i./ha). The mortality at 7.5 g/ha with H. armigera 3rd instar (Helicoverpa armigera, Chlorantraniliprole 7.5 g a.i./ha, 96 hours) was 100%; in assay [1] (Spodoptera frugiperda, Chlorantraniliprole 7.5 g a.i./ha, 96 hours) it was 59.4%; in assay [2] (Chlorantraniliprole 7.5 g a.i./ha), 100%. The H. armigera control result in the assay with H. armigera 3rd instar (at 7.5 g a.i./ha) is reported as “most effective”. Besides, the “control of E. heros” value in assay [4] was “did not control”. Besides, in the assay with C. includens 3rd instar, the “control of C. includens” value is listed as “most effective”.

A word on the mortality: it is the percentage killed.

The values above are taken from patent US11559057B2, “Insecticidal mixtures of bifenthrin and chlorantraniliprole” (FMC CORPORATION, priority 2019, dated 2023).
